From ChEMBL document CHEMBL4422622, “Identification of Mineralocorticoid Receptor Modulators with Low Impact on Electrolyte Homeostasis but Maintained Organ Protection” (J Med Chem, 2019) come the findings set out here.

Structures are written as SMILES. Values after ≈ are worked out from the molar mass of the structure shown. Bounds are passed on as bounds.

Data set [1] in a line: Octanol-water partitioning co-efficient, log D of the compound at pH 7.4 by LC/MS/MS analysis. Format: physicochemical.
Data set [2] is described as follows: Kinetic solubility of compound at pH 7.4 after 24 hrs by shake-flask assay. Format: physicochemical. The settings on record: buffer, read-out: -log(solubility) (converted).
The target of data set [3] is T1, Progesterone receptor (Homo sapiens, UniProt P06401).
T1 sequence (P06401 whole entry): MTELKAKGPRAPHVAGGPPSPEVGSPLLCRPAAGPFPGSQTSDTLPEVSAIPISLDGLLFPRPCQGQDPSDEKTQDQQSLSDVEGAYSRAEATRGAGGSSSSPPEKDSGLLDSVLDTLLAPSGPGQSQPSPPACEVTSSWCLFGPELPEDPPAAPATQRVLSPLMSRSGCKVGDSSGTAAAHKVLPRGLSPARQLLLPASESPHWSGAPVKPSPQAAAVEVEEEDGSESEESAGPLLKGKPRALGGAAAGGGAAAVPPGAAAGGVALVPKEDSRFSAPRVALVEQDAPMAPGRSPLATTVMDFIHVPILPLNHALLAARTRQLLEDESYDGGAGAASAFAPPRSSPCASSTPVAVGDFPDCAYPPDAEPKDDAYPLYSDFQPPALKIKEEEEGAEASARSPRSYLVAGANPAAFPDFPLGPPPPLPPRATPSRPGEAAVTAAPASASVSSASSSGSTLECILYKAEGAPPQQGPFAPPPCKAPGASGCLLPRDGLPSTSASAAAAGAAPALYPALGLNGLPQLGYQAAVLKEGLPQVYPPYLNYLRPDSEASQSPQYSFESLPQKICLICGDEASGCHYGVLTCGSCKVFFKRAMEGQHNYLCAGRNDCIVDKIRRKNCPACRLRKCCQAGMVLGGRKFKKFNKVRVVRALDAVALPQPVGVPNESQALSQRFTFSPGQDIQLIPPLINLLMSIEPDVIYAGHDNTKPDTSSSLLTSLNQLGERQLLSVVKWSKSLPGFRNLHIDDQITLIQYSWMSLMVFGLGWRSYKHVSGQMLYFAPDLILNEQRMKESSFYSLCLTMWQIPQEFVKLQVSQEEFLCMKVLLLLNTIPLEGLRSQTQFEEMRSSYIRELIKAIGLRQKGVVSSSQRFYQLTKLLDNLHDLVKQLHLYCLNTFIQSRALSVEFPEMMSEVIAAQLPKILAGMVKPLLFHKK
The data set can be described thus: Binding affinity to recombinant human progesterone receptor LBD by fluormone PL red-fluorescence polarization assay. Background: Polarisation of emitted light reports the rotation of a fluorescent probe.

The nature of data set [4]: Intrinsic clearance in human liver microsomes at 1 uM measured up to 30 mins in presence of NADPH by LC-MS/MS analysis. The settings on record: read-out: CLH. It is filed as ADME, Microsome. For orientation: Microsomes from liver hold many membrane-bound enzymes, among them those of drug oxidation.
Data set [5] deals with T2, Mineralocorticoid receptor (Homo sapiens, UniProt P08235).
T2 sequence (P08235 whole entry): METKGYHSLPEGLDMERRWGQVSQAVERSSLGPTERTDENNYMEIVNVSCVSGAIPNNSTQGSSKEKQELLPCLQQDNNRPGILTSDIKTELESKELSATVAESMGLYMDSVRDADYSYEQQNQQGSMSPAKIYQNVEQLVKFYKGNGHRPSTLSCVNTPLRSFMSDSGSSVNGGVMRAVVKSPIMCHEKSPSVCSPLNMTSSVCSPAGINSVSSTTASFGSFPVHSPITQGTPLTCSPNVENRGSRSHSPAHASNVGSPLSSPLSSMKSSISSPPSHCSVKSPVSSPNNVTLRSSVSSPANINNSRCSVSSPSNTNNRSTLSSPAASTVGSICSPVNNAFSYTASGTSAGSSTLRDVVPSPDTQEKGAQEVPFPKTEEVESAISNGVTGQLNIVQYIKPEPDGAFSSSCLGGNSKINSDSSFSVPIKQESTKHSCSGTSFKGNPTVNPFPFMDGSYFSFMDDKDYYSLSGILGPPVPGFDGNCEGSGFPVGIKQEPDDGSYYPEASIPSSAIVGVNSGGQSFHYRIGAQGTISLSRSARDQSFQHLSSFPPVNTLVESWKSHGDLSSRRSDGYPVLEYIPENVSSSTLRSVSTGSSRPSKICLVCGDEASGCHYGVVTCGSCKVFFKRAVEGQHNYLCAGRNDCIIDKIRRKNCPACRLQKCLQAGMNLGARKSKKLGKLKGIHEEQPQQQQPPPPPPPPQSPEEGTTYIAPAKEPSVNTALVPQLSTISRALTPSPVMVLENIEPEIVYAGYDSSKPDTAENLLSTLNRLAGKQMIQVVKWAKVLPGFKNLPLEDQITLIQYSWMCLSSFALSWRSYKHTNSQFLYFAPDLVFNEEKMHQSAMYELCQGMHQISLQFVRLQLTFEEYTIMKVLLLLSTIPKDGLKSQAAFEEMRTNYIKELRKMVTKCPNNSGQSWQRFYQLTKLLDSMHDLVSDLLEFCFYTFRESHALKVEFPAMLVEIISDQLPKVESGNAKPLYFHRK
Description: Displacement of [3H]-aldosterone to human mineralocorticoid receptor LBD by radiometric binding assay

Data set [6] concerns the target T3, Glucocorticoid receptor (Homo sapiens, UniProt P04150).
T3 sequence (P04150 whole entry): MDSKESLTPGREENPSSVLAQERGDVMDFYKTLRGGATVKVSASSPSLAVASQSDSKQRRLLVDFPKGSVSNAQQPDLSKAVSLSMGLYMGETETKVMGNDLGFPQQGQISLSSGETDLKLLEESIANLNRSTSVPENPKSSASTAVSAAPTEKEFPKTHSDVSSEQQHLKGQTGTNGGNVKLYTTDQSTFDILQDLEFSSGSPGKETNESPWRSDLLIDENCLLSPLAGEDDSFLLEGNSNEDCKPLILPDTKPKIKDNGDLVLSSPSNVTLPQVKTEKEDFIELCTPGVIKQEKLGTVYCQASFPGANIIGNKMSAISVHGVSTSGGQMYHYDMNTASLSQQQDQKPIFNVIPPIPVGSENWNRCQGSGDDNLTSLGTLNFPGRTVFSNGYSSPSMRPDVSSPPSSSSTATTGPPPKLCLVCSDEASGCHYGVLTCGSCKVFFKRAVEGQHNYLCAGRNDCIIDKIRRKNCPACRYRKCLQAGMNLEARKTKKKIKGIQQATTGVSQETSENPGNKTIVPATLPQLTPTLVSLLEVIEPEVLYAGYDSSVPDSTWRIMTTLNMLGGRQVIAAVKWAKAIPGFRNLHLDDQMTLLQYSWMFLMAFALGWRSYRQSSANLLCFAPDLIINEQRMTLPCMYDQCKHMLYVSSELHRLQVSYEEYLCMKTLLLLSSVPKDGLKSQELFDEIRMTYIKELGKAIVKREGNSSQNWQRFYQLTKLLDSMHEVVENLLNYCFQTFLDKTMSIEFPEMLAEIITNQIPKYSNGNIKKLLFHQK
Description: Binding affinity to recombinant human GR LBD by fluormone GS red-fluorescence polarization assay

The target of data set [7] is T2, Mineralocorticoid receptor. The source holds these as a separate data set.
Description: Antagonist activity at gal4-fused human mineralocorticoid receptor LBD expressed in UAS-MR-bla HEK293 cells by luciferase reporter gene assay
In data set [8] the test system is Rattus norvegicus. The data set can be described thus: Induction of hyperkalemia in Sprague-Dawley rat fed on low salt diet for 72 hrs assessed as increase in Na+/K+ ratio in urine administered via oral gavage after 8 hrs. The conditions noted are these: in vivo. Format: organism-based.
Data set [9] in a line: Fraction unbound in Han Wistar rat plasma at 1 uM after 4 hrs by LC/MS/MS analysis. It is filed as ADME, cell-free.
Data set [10] can be described thus: Intrinsic clearance in Han Wistar rat hepatocytes assessed per million cells at 1 uM after 4 hrs by LC/MS/MS analysis. It is filed as ADME, cell-based, Hepatocyte. The settings on record: read-out: CLH.
Data set [11] is described as follows: Volume of distribution at steady state in Han Wistar rat at 1.2 mg/kg, iv by LC-MS/MS analysis. Format: ADME, organism-based. The conditions noted are these: in vivo, read-out: Vdss.
Data set [12] can be described thus: Clearance in Han Wistar rat at 1.2 mg/kg, iv by LC-MS/MS analysis. It is filed as ADME, organism-based. The conditions noted are these: in vivo.
Data set [13] is described as follows: Terminal half life in Han Wistar rat at 1.2 mg/kg, iv by LC-MS/MS analysis. It is filed as ADME, organism-based. The settings on record: in vivo, read-out: beta t1/2 (converted).
Data set [14] in a line: Oral bioavailability in Han Wistar rat at 2.1 mg/kg by LC-MS/MS analysis. It is filed as ADME, organism-based. The conditions noted are these: in vivo.

`C[C@H]1COc2cccnc2N1C(=O)c1ccc2c(c1)NC(=O)CO2` showed a logD in data set [1] of 1.3. Moreover, the solubility kinetic at 24 h in [2] was 1000 µM (≈ 325 µg/mL). The Ki was greater than 50100 nM in [3], 1260 nM in data set [5] and greater than 15800 nM in data set [6]. For the same molecule, the microsomal CLint at 1 µM in [4] was determined as 6 µL/min/mg. Besides, in data set [7], the IC50 is greater than 10000 nM.

With `CC(C)C[C@H]1COc2cc(F)ccc2N1C(=O)c1ccc2c(c1)NC(=O)CO2`, the logD in data set [1] turned out to be 3.8. Moreover, the solubility kinetic at 24 h in [2] was 39.8 µM (≈ 15.3 µg/mL). The Ki in data set [3] is 2510 nM; in data set [5], 2 nM; in [6] it was 50.1 nM. Moreover, the microsomal CLint at 1 µM in data set [4] is greater than 300 µL/min/mg. The molecule also showed an IC50 in data set [7] of 63.1 nM.

`NCC[C@H]1COc2cc(F)ccc2N1C(=O)c1ccc2c(c1)NC(=O)CO2` yielded a logD in data set [1] of 0.2. Moreover, the solubility kinetic at 24 h in data set [2] is 50.1 µM (≈ 18.6 µg/mL). In addition, the Ki in [3] was greater than 50100 nM; in data set [5], greater than 10000 nM; in [6], greater than 15800 nM. The microsomal CLint at 1 µM in data set [4] came to 12 µL/min/mg. In data set [7], the IC50 was greater than 10000 nM.

Regarding `O=C(O)C[C@H]1COc2cc(Cl)ccc2N1C(=O)c1ccc2c(c1)NC(=O)CO2`, the logD in data set [1] was -0.5. Further, in [2], the solubility kinetic at 24 h is 1000 µM (≈ 403 µg/mL). Besides, the inhibitory constant (Ki) is greater than 50100 nM in [3], 158 nM in data set [5] and 5010 nM in data set [6]. For the same molecule, the microsomal CLint at 1 µM in data set [4] was less than 3 µL/min/mg. The IC50 in [7] was greater than 10000 nM.

As to `C[C@@H]1COc2cc(F)ccc2N1C(=O)c1ccc2c(c1)NC(=O)CO2`, the logD in data set [1] turned out to be 2.7. Further, the Ki in data set [3] was greater than 50100 nM. For the same molecule, in data set [4], the microsomal CLint at 1 µM turned out to be 11 µL/min/mg.

`COC(=O)[C@@H]1CC2=CC(=O)CC[C@]2(C)[C@@]23O[C@@H]2C[C@@]2(C)[C@@H](CC[C@@]24CCC(=O)O4)[C@H]13` [EPLERENONE] returned a logD in data set [1] of 0.8. Moreover, in data set [2], the solubility kinetic at 24 h is 1000 µM (≈ 414 µg/mL). Besides, the microsomal CLint at 1 µM in [4] was 9 µL/min/mg. In data set [8], the Activity entry is reported as “Toxic”. The fraction unbound at 4 h, 1 µM in [9] turned out to be 0.76. Further, in data set [10], the hepatocyte CLint at 1 µM was found to be 5 µL/min/1e6 cells. Moreover, the Vd in data set [11] worked out at 1 L/kg. For the same molecule, the clearance in data set [12] amounted to 17 mL/min/kg. Besides, the half-life in data set [13] was 1.3 h. In addition, the bioavailability in data set [14] came out at 16%.

Molecule `O=C1COc2ccc(C(=O)N3c4ccc(Cl)cc4C[C@@H]3CCO)cc2N1` yielded a logD in data set [1] of 3.7. The solubility kinetic at 24 h in data set [2] was 2 µM (≈ 0.744 µg/mL). Further, the Ki was greater than 50100 nM in [3], greater than 10000 nM in data set [5] and greater than 15800 nM in [6]. For the same molecule, the microsomal CLint at 1 µM in data set [4] was 40 µL/min/mg. Besides, the IC50 in data set [7] is greater than 10000 nM.

The molecule `CC(C)C[C@H]1COc2cc(F)ccc2N1C(=O)c1ccc2c(c1)NC(=O)CC2` had a logD in data set [1] of 3.6. For the same molecule, the solubility kinetic at 24 h in [2] was 79.4 µM (≈ 30.4 µg/mL). The figures for the inhibition constant (Ki) in data set [3], in [5] and in data set [6] were greater than 50100 nM, 1000 nM and 12600 nM, respectively. Further, the microsomal CLint at 1 µM in [4] is greater than 300 µL/min/mg. Also, in [7], half-maximal inhibition (IC50) required 2510 nM.

The molecule `O=C1COc2ccc(C(=O)N3c4ccc(F)cc4OC[C@@H]3CCO)cc2N1` came in with a logD in [1] of 1.8. Further, in data set [2], the solubility kinetic at 24 h was 1000 µM (≈ 372 µg/mL). The Ki in [3] is 25100 nM; in data set [5] it was 200 nM; in data set [6], 1260 nM. Besides, the microsomal CLint at 1 µM in [4] is 15 µL/min/mg. In data set [7], this molecule gave an IC50 of 501 nM.

As to `C[C@H]1CCc2cc(F)ccc2N1C(=O)c1ccc2c(c1)NC(=O)CO2`, the logD in data set [1] stood at 2.9. The solubility kinetic at 24 h in data set [2] is 126 µM (≈ 42.8 µg/mL). Also, the Ki in data set [3] is greater than 50100 nM; in data set [5], 126 nM; in data set [6], 2000 nM. The microsomal CLint at 1 µM in data set [4] came out at 190 µL/min/mg. Further, the concentration for half-maximal inhibition (IC50) in data set [7] was 794 nM.

For orientation: logD means lipophilicity at a set pH, counting ionised and neutral species. A high value points to higher lipophilicity. The Ki is a dissociation constant, usually derived from enzyme kinetics or from competition with a known ligand. For orientation: IC50 means the midpoint of a concentration-inhibition curve. A high value points to a need for much substance. The fraction unbound is the share of the substance not bound to proteins or other matrix. The term clearance denotes a measure of how efficiently the substance is removed, as volume per time. Lower therefore signals inefficient removal. Usually bioavailability stands for the share of a dose that reaches the circulation, judged against a reference dose that is usually intravenous. High values mean good availability, low ones poor availability.
